# Results from ChEMBL document CHEMBL1150539, “A novel non nucleoside compound with high in vitro anti-HIV-1 activity. Absolute stereochemistry determination” (Bioorg Med Chem Lett, 1995).
# pEC50, pIC50: −log10 of the molar value. Where “and” joins values, the source holds several entries; their conditions need not be identical. Equal entries are not always repeated.
# What was measured:
# Format in all cases: functional, cell-based, Homo sapiens
# [1] = tested on: CEM-SS; assay: Effective concentration required for 50% inhibition of viral replication by syncytium-forming assay carried out in CEM-SS cells
# [2] = tested on: CEM-SS; assay: Compound was evaluated for inhibitory activity against cell growth
# [3] = tested on: CEM-SS; assay: Effective concentration required for 50% inhibition of viral replication by XTT cytoprotection assay carried out in CEM-SS cells
SMILES,"pEC50 ([1]; Homo sapiens, CEM-SS)",pIC50 ([2]; cem-ss),"pEC50 ([3]; Homo sapiens, CEM-SS)",pEC50 ([1]; cem-ss),pEC50 ([3]; cem-ss),"pIC50 ([2]; Homo sapiens, CEM-SS)"
CC1(C)CCC[C@]2(C)[C@@H](c3ccoc3)C(=O)[C@@H]3O[C@]312,4.81,4.32 and 3.81,4.38,–,–,–
CC1(C)CCC[C@@]2(C)[C@H](c3ccoc3)C(=O)[C@H]3O[C@@]312,–,4.38 and 3.87,–,6.22,6.10,–
CC1(C)CCC[C@@]2(C)[C@H](c3ccoc3)C(=O)[C@H]3O[C@@]312 (racemic),–,4.34 and 4.27,5.89,5.77,–,–
Cc1cn([C@H]2C[C@H](N=[N+]=[N-])[C@@H](CO)O2)c(=O)[nH]c1=O [ZIDOVUDINE],7.70,–,6.52,–,–,< 2.72
